From the NIST ThermoML archive (doi:10.1016/j.jct.2006.08.002)
± gives the expanded uncertainty stated by the source.

Assay: xn = mol fraction of the nth substance listed
Conditions: Fluid (supercritical or subcritical phases), Constant-volume piezometry

CCO [ethanol] + O
Conditions	mass density [kg/m3]
598.15 K, 15540 kPa, x1 = 0.2	308.36 ± 35
598.15 K, 15600 kPa, x1 = 0.8	243.3 ± 3.3
598.15 K, 15640 kPa, x1 = 0.2	325.01 ± 21
598.15 K, 16230 kPa, x1 = 0.8	260.09 ± 2
598.15 K, 16810 kPa, x1 = 0.2	420.24 ± 8.2
598.15 K, 17080 kPa, x1 = 0.8	283.38 ± 2.9
598.15 K, 18140 kPa, x1 = 0.8	306.39 ± 5.4
598.15 K, 18350 kPa, x1 = 0.8	311.71 ± 5.4
598.15 K, 19160 kPa, x1 = 0.5	326.69 ± 0.6
598.15 K, 21410 kPa, x1 = 0.8	366.53 ± 1.8
598.15 K, 21610 kPa, x1 = 0.5	384.81 ± 2.7
598.15 K, 21850 kPa, x1 = 0.5	418.8 ± 14
598.15 K, 22460 kPa, x1 = 0.8	381.79 ± 1.3
598.15 K, 24130 kPa, x1 = 0.5	420.47 ± 1.2
598.15 K, 24210 kPa, x1 = 0.5	423.68 ± 1.2
598.15 K, 24610 kPa, x1 = 0.8	404.76 ± 1
598.15 K, 27590 kPa, x1 = 0.2	547.13 ± 0.86
598.15 K, 28350 kPa, x1 = 0.8	438.59 ± 1
598.15 K, 28670 kPa, x1 = 0.5	462.7 ± 0.79
598.15 K, 38940 kPa, x1 = 0.5	520.65 ± 0.75
598.15 K, 48240 kPa, x1 = 0.2	617.36 ± 0.78
598.15 K, 48500 kPa, x1 = 0.5	554.28 ± 0.73
603.15 K, 10470 kPa, x1 = 0.2	67.54 ± 4.4
603.15 K, 12120 kPa, x1 = 0.5	117.18 ± 2
603.15 K, 14860 kPa, x1 = 0.5	170.89 ± 2.1
603.15 K, 16860 kPa, x1 = 0.2	350.86 ± 2.2
603.15 K, 16940 kPa, x1 = 0.5	234.07 ± 3.4
603.15 K, 18730 kPa, x1 = 0.5	293.15 ± 0.91
613.15 K, 23290 kPa, x1 = 0.2	452.8 ± 4.2
623.15 K, 6210 kPa, x1 = 0.8	53.01 ± 1.3
623.15 K, 7610 kPa, x1 = 0.5	55.79 ± 0.81
623.15 K, 9230 kPa, x1 = 0.5	69.05 ± 0.96
623.15 K, 10590 kPa, x1 = 0.5	84.15 ± 0.99
623.15 K, 11070 kPa, x1 = 0.8	114.64 ± 1.5
623.15 K, 13180 kPa, x1 = 0.5	117.07 ± 1.2
623.15 K, 13400 kPa, x1 = 0.2	89.94 ± 1.3
623.15 K, 15510 kPa, x1 = 0.8	187.93 ± 1.8
623.15 K, 16770 kPa, x1 = 0.2	137.9 ± 2.2
623.15 K, 18300 kPa, x1 = 0.8	242.99 ± 1.9
623.15 K, 19450 kPa, x1 = 0.2	221.42 ± 3.8
623.15 K, 20470 kPa, x1 = 0.8	283.01 ± 1.8
623.15 K, 20590 kPa, x1 = 0.2	286.35 ± 5.6
623.15 K, 21000 kPa, x1 = 0.2	307.94 ± 4.9
623.15 K, 21380 kPa, x1 = 0.2	324.56 ± 4.7
623.15 K, 21860 kPa, x1 = 0.8	305.99 ± 1.6
623.15 K, 21920 kPa, x1 = 0.2	350.47 ± 4.8
623.15 K, 22240 kPa, x1 = 0.8	311.3 ± 2.9
623.15 K, 24920 kPa, x1 = 0.2	420.24 ± 2.4
623.15 K, 26360 kPa, x1 = 0.8	366.04 ± 1.4
623.15 K, 27820 kPa, x1 = 0.8	381.27 ± 0.99
623.15 K, 27940 kPa, x1 = 0.5	384.27 ± 0.57
623.15 K, 30710 kPa, x1 = 0.8	404.2 ± 0.84
623.15 K, 31220 kPa, x1 = 0.5	418.2 ± 0.8
623.15 K, 31480 kPa, x1 = 0.5	419.87 ± 1.1
623.15 K, 31720 kPa, x1 = 0.5	423.08 ± 0.83
623.15 K, 36430 kPa, x1 = 0.8	444.29 ± 0.86
623.15 K, 37340 kPa, x1 = 0.5	462.02 ± 0.73
623.15 K, 41330 kPa, x1 = 0.2	546.22 ± 0.99
623.15 K, 50360 kPa, x1 = 0.5	519.83 ± 0.77
628.15 K, 19790 kPa, x1 = 0.8	259.69 ± 1.4
628.15 K, 36970 kPa, x1 = 0.8	437.84 ± 0.85
633.15 K, 11600 kPa, x1 = 0.2	67.45 ± 1.9
633.15 K, 13740 kPa, x1 = 0.5	117.01 ± 1.4
633.15 K, 17410 kPa, x1 = 0.5	170.64 ± 1.7
633.15 K, 23850 kPa, x1 = 0.5	292.69 ± 2.1
633.15 K, 26000 kPa, x1 = 0.5	326.07 ± 2.2
638.15 K, 21420 kPa, x1 = 0.5	233.65 ± 1.2
643.15 K, 35160 kPa, x1 = 0.2	451.97 ± 1.4
648.15 K, 6600 kPa, x1 = 0.8	52.95 ± 1.1
648.15 K, 8080 kPa, x1 = 0.5	55.72 ± 0.74
648.15 K, 9890 kPa, x1 = 0.5	68.96 ± 0.85
648.15 K, 11430 kPa, x1 = 0.5	84.05 ± 1
648.15 K, 12050 kPa, x1 = 0.8	114.5 ± 1.3
648.15 K, 14470 kPa, x1 = 0.5	116.92 ± 1.1
648.15 K, 14680 kPa, x1 = 0.2	89.83 ± 1.1
648.15 K, 17440 kPa, x1 = 0.8	187.69 ± 1.4
648.15 K, 19110 kPa, x1 = 0.2	137.73 ± 1.5
648.15 K, 23400 kPa, x1 = 0.2	221.13 ± 2.2
648.15 K, 25670 kPa, x1 = 0.8	305.59 ± 0.57
648.15 K, 25860 kPa, x1 = 0.2	285.96 ± 2.6
648.15 K, 26120 kPa, x1 = 0.8	310.89 ± 1.2
648.15 K, 26740 kPa, x1 = 0.2	307.52 ± 2.3
648.15 K, 28730 kPa, x1 = 0.2	349.97 ± 1.6
648.15 K, 31420 kPa, x1 = 0.8	365.54 ± 1.1
648.15 K, 33230 kPa, x1 = 0.8	380.75 ± 0.83
648.15 K, 33660 kPa, x1 = 0.2	420.24 ± 1.5
648.15 K, 34330 kPa, x1 = 0.5	383.73 ± 0.6
648.15 K, 36760 kPa, x1 = 0.8	403.64 ± 0.83
648.15 K, 39020 kPa, x1 = 0.5	419.27 ± 0.9
653.15 K, 19550 kPa, x1 = 0.2	137.7 ± 1.9
653.15 K, 21530 kPa, x1 = 0.8	242.62 ± 1.4
653.15 K, 22750 kPa, x1 = 0.8	259.36 ± 1.4
653.15 K, 24460 kPa, x1 = 0.8	282.58 ± 1.3
653.15 K, 26990 kPa, x1 = 0.8	310.81 ± 1
653.15 K, 28660 kPa, x1 = 0.2	324.03 ± 1.5
653.15 K, 34300 kPa, x1 = 0.8	380.65 ± 0.86
653.15 K, 35620 kPa, x1 = 0.5	383.63 ± 0.64
653.15 K, 40110 kPa, x1 = 0.5	417.48 ± 0.74
653.15 K, 40890 kPa, x1 = 0.5	422.34 ± 0.79
653.15 K, 44100 kPa, x1 = 0.8	437.21 ± 0.74
653.15 K, 48080 kPa, x1 = 0.5	461.19 ± 0.75
673.15 K, 6990 kPa, x1 = 0.8	52.89 ± 1
673.15 K, 8570 kPa, x1 = 0.5	55.65 ± 0.68
673.15 K, 10540 kPa, x1 = 0.5	68.88 ± 0.81
673.15 K, 12250 kPa, x1 = 0.5	83.95 ± 0.93
673.15 K, 12980 kPa, x1 = 0.2	67.32 ± 0.76
673.15 K, 13010 kPa, x1 = 0.8	114.36 ± 1.1
673.15 K, 15740 kPa, x1 = 0.5	116.78 ± 1.1
673.15 K, 15940 kPa, x1 = 0.2	89.72 ± 0.86
673.15 K, 19310 kPa, x1 = 0.8	187.46 ± 1.2
673.15 K, 20680 kPa, x1 = 0.5	170.3 ± 1.2
673.15 K, 21310 kPa, x1 = 0.2	137.56 ± 1.2
673.15 K, 23620 kPa, x1 = 0.8	242.38 ± 1.3
673.15 K, 25130 kPa, x1 = 0.8	259.1 ± 1.2
673.15 K, 25740 kPa, x1 = 0.5	233.23 ± 1.3
673.15 K, 27230 kPa, x1 = 0.8	282.28 ± 1.1
673.15 K, 27430 kPa, x1 = 0.2	220.84 ± 1.5
673.15 K, 29500 kPa, x1 = 0.8	305.19 ± 1.1
673.15 K, 30040 kPa, x1 = 0.8	310.49 ± 1.1
673.15 K, 30620 kPa, x1 = 0.5	292.07 ± 1.2
673.15 K, 31230 kPa, x1 = 0.2	285.57 ± 1.7
673.15 K, 32510 kPa, x1 = 0.2	307.09 ± 1.6
673.15 K, 33730 kPa, x1 = 0.2	323.66 ± 1.5
673.15 K, 34050 kPa, x1 = 0.5	325.37 ± 0.96
673.15 K, 35510 kPa, x1 = 0.2	349.48 ± 1.5
673.15 K, 36420 kPa, x1 = 0.8	365.05 ± 0.92
673.15 K, 38700 kPa, x1 = 0.8	380.23 ± 0.72
673.15 K, 40850 kPa, x1 = 0.5	383.2 ± 0.92
673.15 K, 42660 kPa, x1 = 0.2	420.24 ± 1
673.15 K, 42950 kPa, x1 = 0.8	403.08 ± 0.71
673.15 K, 46620 kPa, x1 = 0.5	418.66 ± 0.88
673.15 K, 47140 kPa, x1 = 0.2	451.15 ± 0.87
